Test results as given in ChEMBL document CHEMBL2401697, “Indazoles as potential c-Met inhibitors: design, synthesis and molecular docking studies” (Eur J Med Chem, 2013).

Test system: MKN-45
Experiment: Cytotoxicity against human MKN45 cells after 1 hr by Western blotting analysis
Details: MKN-45, 1 h

SMILES | IC50
Cn1cc(-c2ccc3cnn(Cc4ccc5ncccc5c4)c3c2)cn1 | 12.9 µM
c1cnc2ccc(Cn3ncc4ccc(-c5cnn(CCOC6CCCCO6)c5)cc43)cc2c1 (stereo not given) | 14 µM
OCCn1cc(-c2ccc3cnn(Cc4ccc5ncccc5c4)c3c2)cn1 | 6.72 µM
CC(C)(C)[Si](C)(C)O[C@H]1CC[C@H](n2cc(-c3ccc4cnn(Cc5ccc6ncccc6c5)c4c3)cn2)CC1 | 11 µM
O[C@H]1CC[C@H](n2cc(-c3ccc4cnn(Cc5ccc6ncccc6c5)c4c3)cn2)CC1 | 5.45 µM
Cn1cc(-c2ccc3cn(Cc4ccc5ncccc5c4)nc3c2)cn1 | 106 µM
c1cnc2ccc(Cn3cc4ccc(-c5cnn(CCOC6CCCCO6)c5)cc4n3)cc2c1 (stereo not given) | 12 µM
OCCn1cc(-c2ccc3cn(Cc4ccc5ncccc5c4)nc3c2)cn1 | 110 µM
CC(C)(C)[Si](C)(C)O[C@H]1CC[C@H](n2cc(-c3ccc4cn(Cc5ccc6ncccc6c5)nc4c3)cn2)CC1 | 1300 µM
O[C@H]1CC[C@H](n2cc(-c3ccc4cn(Cc5ccc6ncccc6c5)nc4c3)cn2)CC1 | 13.4 µM
